# In US20240075049A1 (priority 2020, published 2024):
# Tests used:
# [1] = adverse reaction in a treated coronavirus patient; format: in vivo, human; details: person, doxycycline 100 mg bd added to amantadine, ivermectin, zinc
# Experimental: A front-line worker and was diagnosed with coronavirus in association with fevers, aches and fatigue. They are commenced on amantadine orally using the standard capsule of […] once daily for ten days. […] They developed a rash to the doxycycline when added and this was changed to azithromycin 250 mg bd for the duration of the ten-day course.
# [2] = in vivo; cited from earlier work
# [3] = in vivo; cited from earlier work; remark: listed apart in the source
# [4] = more than 200 mcg/kg (12 mg), 2000 mcg/kg (120 mg) and above; cited from earlier work
# [5] = ivermectin toxicity at high doses, relation to LD50; format: in vivo; details: 2000 mcg/kg (120 mg in a 60 kg adult)
compound,measurement,setting,value
C[C@H]1c2cccc(O)c2C(=O)C2=C(O)[C@]3(O)C(=O)C(C(N)=O)=C(O)[C@@H](N(C)C)[C@@H]3[C@@H](O)[C@@H]21 [doxycycline],adverse reaction,[1],rash
CCN(CCO)CCCC(C)Nc1ccnc2cc(Cl)ccc12 (centres unmarked) [hydroxychloroquine],half-life,[2],40 days
ivermectin,excretion,[3],mostly in the feces
same,toxicity at doses above the accepted therapeutic dose,[4],without any increase in ivermectin toxicity
same,dose as percentage of the LD50,[5],7%
